Experimental findings from BindingDB's records for doi:10.1021/jm5002502 (St. John'S University, 2014) are described below.

This assay addresses Poly [ADP-ribose] polymerase 1 (Homo sapiens, UniProt P09874). Kind of assay: Inhibition of PARP-1 (unknown origin) using biotinylated NAD+ as substrate after 60 mins by spectrophotometry.

Chain of Poly [ADP-ribose] polymerase 1 (P09874 whole entry): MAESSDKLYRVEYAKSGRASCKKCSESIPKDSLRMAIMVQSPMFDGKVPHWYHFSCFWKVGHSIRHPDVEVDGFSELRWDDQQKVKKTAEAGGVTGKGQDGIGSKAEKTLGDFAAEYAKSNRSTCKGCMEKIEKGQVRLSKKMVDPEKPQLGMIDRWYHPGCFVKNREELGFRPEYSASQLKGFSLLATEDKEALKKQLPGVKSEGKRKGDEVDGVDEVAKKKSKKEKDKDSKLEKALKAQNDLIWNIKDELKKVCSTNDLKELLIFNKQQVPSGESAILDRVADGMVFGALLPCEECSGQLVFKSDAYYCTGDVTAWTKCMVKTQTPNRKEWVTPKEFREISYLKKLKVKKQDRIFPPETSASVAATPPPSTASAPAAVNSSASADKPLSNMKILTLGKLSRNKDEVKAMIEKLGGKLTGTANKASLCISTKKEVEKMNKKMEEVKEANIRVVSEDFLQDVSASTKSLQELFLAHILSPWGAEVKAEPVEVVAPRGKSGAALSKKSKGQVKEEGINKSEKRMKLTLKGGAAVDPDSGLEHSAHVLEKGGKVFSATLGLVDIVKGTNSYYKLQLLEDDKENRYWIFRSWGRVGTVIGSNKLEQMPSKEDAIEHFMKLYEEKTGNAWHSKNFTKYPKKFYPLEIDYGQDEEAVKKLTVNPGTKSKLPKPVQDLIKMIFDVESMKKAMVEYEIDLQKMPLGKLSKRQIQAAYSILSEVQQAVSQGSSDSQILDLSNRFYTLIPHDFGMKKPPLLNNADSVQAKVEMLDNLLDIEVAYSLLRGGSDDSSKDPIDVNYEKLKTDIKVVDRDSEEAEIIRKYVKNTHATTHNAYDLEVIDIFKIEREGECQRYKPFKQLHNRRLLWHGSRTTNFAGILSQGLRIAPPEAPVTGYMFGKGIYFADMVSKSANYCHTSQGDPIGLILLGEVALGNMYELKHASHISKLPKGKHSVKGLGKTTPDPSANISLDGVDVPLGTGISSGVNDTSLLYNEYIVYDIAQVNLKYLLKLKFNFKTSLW

Take `CC1Cc2c(N)ccc(C(N)=O)c2O1` (stereo unspecified): the midpoint of inhibition, the IC50, lay at 4.65 µM.

As a reminder, the IC50 is the concentration that inhibits the measured activity by half.
